Results from publication PMC8525948 (Drug Delivery, 2021).
Structures can show the parent of a compound that is named as a salt.

Legend:
[1] = Solubility (loading amount) in 1 g of optimal LBSNENP PC90C10P0
[2] = Droplet size, PDI and appearance of nanoemulsions (LBSNENAs) after self-nanoemulsifying; assay type: physicochemical; conditions: PC90C10P0 loaded with the named substance at its solubility; 25 °C
Procedure: After self-nanoemulsifying LBSNENPs were placed in double-distilled (DD) water, the average particle size and size distribution of the so-obtained LBSNENAs were measured at a scattering angle of 90° with an N5 submicron particle size analyzer (Beckman Coulter, Brea, CA) at 25 °C, and the intensity autocorrelation of the sample was in a range of 5 × 10^4–10^6. The average diameter and polydispersity index (PDI) of three measurements were reported. […] Each data point is the mean of at least three individual trials.

[3] = In vivo pharmacokinetic study in rabbits: plasma CPT11
Procedure: Plasma samples were stored at −80 °C before the high-performance liquid chromatographic (HPLC) analysis as described below. PK parameters are presented as the mean and standard deviation (SD) from individual rabbits in each group and were estimated through a noncompartmental analysis. The terminal elimination rate constant (Ke) was estimated from the slope of the log-linear phase of declining plasma concentrations of an […] versus time graph. The half-life (T1/2) was calculated using the following equation: T1/2 = ln2/Ke. The area under the concentration-time curve from beginning to the last time point (AUC0→last) was calculated using the trapezoidal method. Summation of AUC0→last and the concentration at the last measured point divided by Ke yielded AUC0→∞. Clearance (CL) was calculated by dividing the dose by AUC0→∞, and the volume of distribution (V) was determined by dividing CL by Ke. The absolute bioavailability (FAB) and relative bioavailability (FRB) were respectively calculated according to Equations (1) and (2), respectively (1) FAB=[AUC]poDIV/[AUC]IVDpo×100 where [AUC]po and [AUC]IV are the area under the plasma concentration curves (AUCs) after oral and intravenous administration. DIV and Dpo are the doses after […] administration, respectively. (2) FRB=[AUC]ADB/[AUC]BDA×100
where AUC for a LBSNENPs formulation [AUC]A and the AUC for the same drug in solution [AUC]B after oral administration were compared. DB and DA are the doses for solution and LBSNENPs formulation, respectively.
After centrifugation at 13,000 rpm for 30 min at 4 °C, 1.2 mL of ethyl acetate was collected, and then subjected to evaporation under N2 gas at 50 °C. The mobile phase (200 μL) was added to reconstitute the dried residual, vortexed for 5 min, and then centrifuged at 10^4 rpm and 25 °C for 3 min. The supernatant (180 µL) was collected, and 50 µL was injected into the HPLC system for analysis.

[4] = In vitro release, USP dissolution apparatus 2, simulated gastric fluid pH 1.2; assay type: physicochemical; conditions: for Dissolution from PC90C10P0 in simulated gastric acid solution: within 0.5 h / plateau at 0.5 h, CPT11 40 mg/g, inhibitors 80 mg/g
Procedure: The temperature of the dissolution medium was maintained at 37 ± 0.5 °C. Aliquots of 5 mL of sample were withdrawn for the assay at predetermined time intervals and replaced with the same volume of fresh medium.

[5] = background statement, no reference given; cited from earlier work
[6] = New Zealand white, rabbit, in vivo, iv, 4 mg/kg

Molecule	Solubility (loading amount) in 1 g of PC90C10P0 [1] [mg/g]	Mean droplet size of nanoemulsion after self-nanoemulsifying [2] [nm]	PDI of nanoemulsion after self-nanoemulsifying [2]	FAB of CPT11 ([3]; I.V. (4 mg/kg), reference group) [%]	AUC(0-inf) [3, 6] [ng·h/mL]	AUC(0-t) [3, 6] [ng·h/mL]	Cmax [3, 6] [ng/mL]	Dissolution from PC90C10P0 in simulated gastric acid solution [4]	Dissolution from PC90C10P0 in simulated gastric acid solution with 1% Tween 80 ([4]; plateau at 0.5 h, 80 mg/g)	Times more active than CPT11 [5]
CCc1c2c(nc3ccc(OC(=O)N4CCC(N5CCCCC5)CC4)cc13)-c1cc3c(c(=O)n1C2)COC(=O)[C@]3(O)CC [CPT11, Irinotecan hydrochloride]	40	157.3 ± 2.08	0.665 ± 0.020	100	287 ± 104	287 ± 104	341 ± 98.6	100%	–	–
CC1(C)[C@@H](O)CC[C@]2(C)[C@H]3C(=O)C=C4[C@@H]5C[C@@](C)(C(=O)O)CC[C@]5(C)CC[C@@]4(C)[C@]3(C)CC[C@@H]12 [GLA, glycyrrhetinic acid]	80	143.5 ± 0.04	0.559 ± 0.063	–	–	–	–	100%	–	–
O=c1cc(-c2ccccc2)oc2cc(O)c(O)c(O)c12 [BA, Baicalein]	80	171.0 ± 6.52	0.863 ± 0.087	–	–	–	–	appeared to be over saturated	not observed	–
silymarin [SM]	130	–	–	–	–	–	–	–	–	–
CC1(C)[C@@H](O[C@H]2O[C@H](C(=O)O)[C@@H](O)[C@H](O)[C@H]2O[C@@H]2O[C@H](C(=O)O)[C@@H](O)[C@H](O)[C@H]2O)CC[C@]2(C)[C@H]3C(=O)C=C4[C@@H]5C[C@@](C)(C(=O)O)CC[C@]5(C)CC[C@@]4(C)[C@]3(C)CC[C@@H]12 [GA, glycyrrhizic acid]	200	102.1 ± 0.67	0.602 ± 0.031	–	–	–	–	100%	–	–
CCc1c2c(nc3ccc(O)cc13)-c1cc3c(c(=O)n1C2)COC(=O)[C@]3(O)CC [SN-38]	–	–	–	–	–	–	–	–	–	100–1000 times
